Assay results taken from the supplement of paper PMC10307832.

Tests used:
Assay in all cases: relative viability (nuclei count vs DMSO), 5 days (fraction); higher = more cells survive
[1] = compound: C1=CC2=NC=CN=C2C=C1/C=C/3\C(=O)NC(=O)S3 + COc1cccc2cc(-c3nc([C@H]4CC[C@H](C(=O)O)CC4)n4ncnc(N)c34)[nH]c12 [OSI-027] (partner 0.5 µM)
How it was run: (§1)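 Cells from lung cancer lines were seeded into 1536-well plates and, one day later, dosed by pin tool. Treatments were either a single drug or a fixed dose of an anchor drug with five library-drug doses (not always all listed) in √10 steps. After 5 days, nuclei were stained in a one-step fixation (final 0.05% Triton X-100, 1% formaldehyde, 1 ug/ml Hoechst) and counted on 4× images, and relative viability is the treated-to-vehicle nuclei ratio, as the median of duplicate plates.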

[2] = compound: C1=CC2=NC=CN=C2C=C1/C=C/3\C(=O)NC(=O)S3 + O=C(c1cc(Cc2n[nH]c(=O)c3ccccc23)ccc1F)N1CCN(C(=O)C2CC2)CC1 [Olaparib] (partner 8 µM)
How it was run: as §1

[3] = compound: C1=CC2=NC=CN=C2C=C1/C=C/3\C(=O)NC(=O)S3 + N=C(N)NC(=N)NCCc1ccccc1 [Phenformin] (partner 250 µM)
How it was run: as §1

BGJ398 + Luminespib = compound: CCN1CCN(c2ccc(Nc3cc(N(C)C(=O)Nc4c(Cl)c(OC)cc(OC)c4Cl)ncn3)cc2)CC1 [BGJ398] + CCNC(=O)c1noc(-c2cc(C(C)C)c(O)cc2O)c1-c1ccc(CN2CCOCC2)cc1 [Luminespib] (partner 0.01 µM)
How it was run: as §1

For UMC-11, the relative viability ([1]; first compound 0.02 µM) was 0.56, the relative viability ([1]; first compound 0.06325 µM) was 0.527 and the relative viability ([1]; first compound 0.2 µM) was 0.552. The relative viability ([1]; first compound 0.6325 µM) was 0.475, the relative viability ([1]; first compound 2 µM) was 0.439 and the relative viability ([2]; first compound 0.02 µM) was 0.336. It also gave a relative viability ([2]; first compound 0.06325 µM) of 0.423, a relative viability ([2]; first compound 0.2 µM) of 0.391 and a relative viability ([2]; first compound 0.6325 µM) of 0.336. For the same cell line, the relative viability ([2]; first compound 2 µM) was 0.379, the relative viability ([3]; first compound 0.02 µM) was 0.329 and the relative viability ([3]; first compound 0.06325 µM) was 0.335. For the same cell line, the relative viability ([3]; first compound 0.2 µM) was 0.373, the relative viability ([3]; first compound 0.6325 µM) was 0.338 and the relative viability ([3]; first compound 2 µM) was 0.331. It also gave a relative viability (BGJ398 + Luminespib; first compound 0.01 µM) of 1.02, a relative viability (BGJ398 + Luminespib; first compound 0.03162 µM) of 1.08 and a relative viability (BGJ398 + Luminespib; first compound 0.1 µM) of 0.994. For the same cell line, the relative viability (BGJ398 + Luminespib; first compound 0.3162 µM) was 0.984 and the relative viability (BGJ398 + Luminespib; first compound 1 µM) was 1.01.
